Laboratory results published in patent publication US12173018B2, “Penicillin-binding protein inhibitors” (priority 2018, dated 2024).
Values after ≈ are worked out from the molar mass of the structure shown. Read-outs that look alike come from different tables or passages of the source.

Assays:
E. coli PBP3 = E. coli PBP3 (Escherichia coli (strain K12), UniProt P0AD68); experiment: E. coli PBP3 Bocillin-FL fluorescence polarization competition binding assay
Method in brief: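 Purified E. coli PBP (1.5 μM final) competed with inhibitor (0-1000 μM) for Bocillin-FL (0.1 μM final) in 50 mM Hepes pH 8.0, 300 mM NaCl, 5% glycerol. Fluorescence polarization (ex 490/em 520 nm) was read continuously for 60 min after Bocillin-FL addition. EC50 was the concentration that reduced Bocillin-FL binding by 50%.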

E. coli ATCC 25922 = experiment: Broth microdilution MIC, E. coli ATCC 25922; assay type: cell-based; conditions: Escherichia coli, ATCC25922; E. coli ATCC 25922, broth microdilution; read-out: MIC E. coli 25922
Method in brief: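 Broth microdilution MICs followed CLSI methods in cation-supplemented Mueller-Hinton broth, with 2-fold serial compound dilutions. Log-phase cultures grown 3–5 h were added to a starting inoculum of 5×10^5 CFU/mL and incubated 16–20 h at 37 °C. The MIC was read visually as the lowest concentration with no growth.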

E. coli AG100 = experiment: Broth microdilution MIC, E. coli AG100 (wild-type parent); assay type: cell-based; conditions: Escherichia coli
Method in brief: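 Starting inoculum of 5×10^5 CFU/mL, from colonies grown 3-5 h in Mueller-Hinton broth with divalent cations, added to two-fold compound dilution series.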

[1] = test system: N. gonorrhoeae ATCC 49226; experiment: Liquid broth MIC, N. gonorrhoeae ATCC 49226; assay type: cell-based; conditions: Neisseria gonorrhoeae, ATCC49226; N. gonorrhoeae ATCC 49226, liquid broth; read-out: Minimum Inhibitory Concentration, N. gonorrhoeae ATCC 49226
Method in brief: (§1)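 Broth microdilution in wild-type strains: colonies from GC agar with 1% Kellogg's supplement suspended in GC broth, inoculated at 5×10^5 CFU/mL into 2-fold compound dilutions. Plates incubated 40-42 hours at 36° C., 5% CO2; MIC read visually as lowest concentration with no growth.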

N. gonorrhoeae FA1090 = experiment: Liquid broth MIC, N. gonorrhoeae FA1090; assay type: cell-based; conditions: Neisseria gonorrhoeae; N. gonorrhoeae FA1090, liquid broth; read-out: Minimum Inhibitory Concentration, N. gonorrhoeae FA1090
Method in brief: as §1

N. gonorrhoeae FA19 = experiment: Liquid broth MIC, N. gonorrhoeae FA19; assay type: cell-based; conditions: Neisseria gonorrhoeae; N. gonorrhoeae FA19, liquid broth; read-out: Minimum Inhibitory Concentration, N. gonorrhoeae FA19
Method in brief: as §1

[2] = wild-type parent E. coli AG100, broth microdilution, read-out: MIC E. coli AG100
[3] = fluorescence polarization competition binding with Bocillin-FL, read-out: E. coli K12 PBP3 Potency

Sequence of E. coli PBP3 (P0AD68 whole entry): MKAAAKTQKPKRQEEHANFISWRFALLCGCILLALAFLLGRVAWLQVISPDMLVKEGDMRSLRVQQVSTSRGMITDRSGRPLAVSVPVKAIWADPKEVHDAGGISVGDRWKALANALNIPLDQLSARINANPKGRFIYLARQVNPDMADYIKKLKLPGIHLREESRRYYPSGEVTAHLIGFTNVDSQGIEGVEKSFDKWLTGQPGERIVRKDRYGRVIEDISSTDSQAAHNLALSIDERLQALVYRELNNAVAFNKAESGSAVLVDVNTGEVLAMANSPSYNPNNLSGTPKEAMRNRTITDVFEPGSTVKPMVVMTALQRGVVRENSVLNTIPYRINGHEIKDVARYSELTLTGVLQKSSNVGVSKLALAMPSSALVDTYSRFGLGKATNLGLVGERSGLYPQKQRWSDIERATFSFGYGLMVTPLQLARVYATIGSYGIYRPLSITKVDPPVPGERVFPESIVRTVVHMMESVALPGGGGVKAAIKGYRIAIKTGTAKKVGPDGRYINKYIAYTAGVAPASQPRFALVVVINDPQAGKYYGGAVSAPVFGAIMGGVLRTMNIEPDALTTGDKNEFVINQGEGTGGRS

SMILES	EC50 (E. coli PBP3)	MIC (E. coli ATCC 25922)	MIC (E. coli AG100; [2])	MIC [1]	MIC (N. gonorrhoeae FA1090)	MIC (N. gonorrhoeae FA19)	EC50 (E. coli PBP3; [3])	MIC (E. coli AG100; AG100, read-out: MIC E. coli AG100)
CCN1CCN(C(=O)N[C@@H](C(=O)N[C@H]2Cc3cccc(C(=O)O)c3OB2O)c2ccc(O)c(O)c2Cl)C(=O)C1=O [Example 190, (R)-3-((R)-2-(2-chloro-3,4-dihydroxyphenyl)-2-(4-ethyl-2,3-dioxopiperazine-1-carboxamido)acetamido)-2-hydroxy-3,4-dihydro-2H-benzo[e][1,2]oxaborinine-8-carboxylic acid]	30 to 500 µM	2 to 4 µg/mL	0.5 to 1 µg/mL	1 to 2 µg/mL (≈ 1.74 to 3.48 µM)	0.25 to 0.5 µg/mL (≈ 0.435 to 0.87 µM)	4 to 8 µg/mL (≈ 6.96 to 13.9 µM)		
NS(=O)(=O)c1ccc(C(NC(=O)N2CCN(CCF)C(=O)C2=O)C(=O)N[C@H]2Cc3cccc(C(=O)O)c3OB2O)cc1 (stereo partly drawn) [Example 103, (3R)-3-(2-(4-(2-fluoroethyl)-2,3-dioxopiperazine-1-carboxamido)-2-(4-sulfamoylphenyl)acetamido)-2-hydroxy-3,4-dihydro-2H-benzo[e][1,2]oxaborinine-8-carboxylic acid]		32 to 64 µg/mL	8 to 16 µg/mL	1 to 2 µg/mL (≈ 1.65 to 3.3 µM)	< 0.125 µg/mL	1 to 2 µg/mL (≈ 1.65 to 3.3 µM)	< 30 µM	
CCCN1CCN(C(=O)NC(C(=O)N[C@H]2Cc3ccc(F)c(C(=O)O)c3OB2O)c2ccc(O)c(O)c2Cl)C(=O)C1=O (stereo partly drawn) [Example 125]	30 to 500 µM	2 to 4 µg/mL	2 to 4 µg/mL	4 to 8 µg/mL (≈ 6.59 to 13.2 µM)	1 to 2 µg/mL (≈ 1.65 to 3.3 µM)	16 to 32 µg/mL (≈ 26.4 to 52.7 µM)		
CCN1C[C@@H](C)N(C(=O)NC(C(=O)N[C@H]2Cc3cccc(C(=O)O)c3OB2O)c2ncc(O)cc2F)C(=O)C1=O (stereo partly drawn) [Example 191, (3R)-3-(2-((R)-4-ethyl-6-methyl-2,3-dioxopiperazine-1-carboxamido)-2-(3-fluoro-5-hydroxypyridin-2-yl)acetamido)-2-hydroxy-3,4-dihydro-2H-benzo[e][1,2]oxaborinine-8-carboxylic acid]	30 to 500 µM	> 128 µg/mL	> 128 µg/mL	> 64 µg/mL	0.25 to 0.5 µg/mL (≈ 0.449 to 0.897 µM)	16 to 32 µg/mL (≈ 28.7 to 57.4 µM)		
CCN1CCN(C(=O)NC(C(=O)N[C@H]2Cc3cccc(C(=O)O)c3OB2O)c2ccc(O)c(O)c2F)C(=O)C1=O (stereo partly drawn) [Example 70]		2 to 4 µg/mL	2 to 4 µg/mL	0.25 to 0.5 µg/mL (≈ 0.448 to 0.896 µM)	< 0.125 µg/mL	1 to 2 µg/mL (≈ 1.79 to 3.58 µM)	< 30 µM	
CCN1CCN(C(=O)NC(C(=O)N[C@H]2Cc3ccc(F)c(C(=O)O)c3OB2O)c2ncc(O)cc2Cl)C(=O)C1=O (stereo partly drawn) [Example 151, (3R)-3-(2-(3-chloro-5-hydroxypyridin-2-yl)-2-(4-ethyl-2,3-dioxopiperazine-1-carboxamido)acetamido)-7-fluoro-2-hydroxy-3,4-dihydro-2H-benzo[e][1,2]oxaborinine-8-carboxylic acid]		> 128 µg/mL	32 to 64 µg/mL	1 to 2 µg/mL (≈ 1.73 to 3.46 µM)	0.25 to 0.5 µg/mL (≈ 0.433 to 0.865 µM)	4 to 8 µg/mL (≈ 6.92 to 13.8 µM)	< 30 µM	
CCN1CCN(C(=O)NC(C(=O)N[C@H]2Cc3cccc(C(=O)O)c3OB2O)c2ccc(B(O)O)cc2)C(=O)C1=O (stereo partly drawn) [Example 112]	30 to 500 µM	32 to 64 µg/mL		1 to 2 µg/mL (≈ 1.81 to 3.62 µM)	< 0.125 µg/mL	1 to 2 µg/mL (≈ 1.81 to 3.62 µM)		32 to 64 µg/mL
CCN1CCN(C(=O)NC(C(=O)N[C@H]2Cc3ccc(F)c(C(=O)O)c3OB2O)c2csc(N)n2)C(=O)C1=O (stereo partly drawn) [Example 109, (3R)-3-(2-(2-aminothiazol-4-yl)-2-(4-ethyl-2,3-dioxopiperazine-1-carboxamido)acetamido)-7-fluoro-2-hydroxy-3,4-dihydro-2H-benzo[e][1,2]oxaborinine-8-carboxylic acid]		8 to 16 µg/mL	8 to 16 µg/mL	1 to 2 µg/mL (≈ 1.82 to 3.65 µM)	0.25 to 0.5 µg/mL (≈ 0.456 to 0.912 µM)	4 to 8 µg/mL (≈ 7.3 to 14.6 µM)	< 30 µM	
CCN1CCN(C(=O)NC(C(=O)N[C@H]2Cc3cccc(C(=O)O)c3OB2O)c2ncc(O)cc2Cl)C(=O)C1=O (stereo partly drawn) [Example 150, (3R)-3-(2-(4-ethyl-2,3-dioxopiperazine-1-carboxamido)-2-(3-chloro-5-hydroxypyridin-2-yl)acetamido)-2-hydroxy-3,4-dihydro-2H-benzo[e][1,2]oxaborinine-8-carboxylic acid]		32 to 64 µg/mL	32 to 64 µg/mL	4 to 8 µg/mL (≈ 7.15 to 14.3 µM)	0.25 to 0.5 µg/mL (≈ 0.447 to 0.893 µM)	4 to 8 µg/mL (≈ 7.15 to 14.3 µM)	< 30 µM	
O=C(O)c1c(F)ccc2c1OB(O)[C@@H](NC(=O)C(NC(=O)N1CCN(CCF)C(=O)C1=O)c1ncc(O)cc1F)C2 (stereo partly drawn) [Example 183, (3R)-7-fluoro-3-(2-(3-fluoro-5-hydroxypyridin-2-yl)-2-(4-(2-fluoroethyl)-2,3-dioxopiperazine-1-carboxamido)acetamido)-2-hydroxy-3,4-dihydro-2H-benzo[e][1,2]oxaborinine-8-carboxylic acid]		32 to 64 µg/mL	8 to 16 µg/mL	0.25 to 0.5 µg/mL (≈ 0.432 to 0.863 µM)	0.25 to 0.5 µg/mL (≈ 0.432 to 0.863 µM)	1 to 2 µg/mL (≈ 1.73 to 3.45 µM)	< 30 µM	
CCN1CCN(C(=O)NC(C(=O)N[C@H]2Cc3ccc(F)c(C(=O)O)c3OB2O)c2ncc(O)cc2F)C(=O)C1=O (stereo partly drawn) [Example 145, (3R)-3-(2-(4-ethyl-2,3-dioxopiperazine-1-carboxamido)-2-(3-fluoro-5-hydroxypyridin-2-yl)acetamido)-7-fluoro-2-hydroxy-3,4-dihydro-2H-benzo[e][1,2]oxaborinine-8-carboxylic acid]		8 to 16 µg/mL	8 to 16 µg/mL	0.25 to 0.5 µg/mL (≈ 0.445 to 0.891 µM)	< 0.125 µg/mL	1 to 2 µg/mL (≈ 1.78 to 3.56 µM)	< 30 µM	
O=C(O)c1cccc2c1OB(O)[C@@H](NC(=O)C(NC(=O)N1CCN(CCF)C(=O)C1=O)c1ccc(S(=O)(=O)NCCO)cc1)C2 (stereo partly drawn) [Example 213, (3R)-3-(2-(4-(2-fluoroethyl)-2,3-dioxopiperazine-1-carboxamido)-2-(4-(N-(2-hydroxyethyl)sulfamoyl)phenyl)acetamido)-2-hydroxy-3,4-dihydro-2H-benzo[e][1,2]oxaborinine-8-carboxylic acid]	30 to 500 µM	> 128 µg/mL	32 to 64 µg/mL	4 to 8 µg/mL (≈ 6.16 to 12.3 µM)	0.25 to 0.5 µg/mL (≈ 0.385 to 0.77 µM)	16 to 32 µg/mL (≈ 24.6 to 49.3 µM)		
CCN1CCN(C(=O)NC(C(=O)N[C@H]2Cc3cccc(C(=O)O)c3OB2O)c2ccc(O)c(O)c2Cl)C(=O)C1=O (stereo partly drawn) [Example 37, (3R)-3-(2-(2-chloro-3,4-dihydroxyphenyl)-2-(4-ethyl-2,3-dioxopiperazine-1-carboxamido)acetamido)-2-hydroxy-3,4-dihydro-2H-benzo[e][1,2]oxaborinine-8-carboxylic acid]		32 to 64 µg/mL	32 to 64 µg/mL	4 to 8 µg/mL (≈ 6.96 to 13.9 µM)	1 to 2 µg/mL (≈ 1.74 to 3.48 µM)	4 to 8 µg/mL (≈ 6.96 to 13.9 µM)	< 30 µM	
CC[C@H]1CN(CC)C(=O)C(=O)N1C(=O)NC(C(=O)N[C@H]1Cc2cccc(C(=O)O)c2OB1O)c1ncc(O)cc1F (stereo partly drawn) [Example 218, (3R)-3-(2-((S)-4,6-diethyl-2,3-dioxopiperazine-1-carboxamido)-2-(3-fluoro-5-hydroxypyridin-2-yl)acetamido)-2-hydroxy-3,4-dihydro-2H-benzo[e][1,2]oxaborinine-8-carboxylic acid]		32 to 64 µg/mL	32 to 64 µg/mL	16 to 32 µg/mL (≈ 28 to 56 µM)	0.25 to 0.5 µg/mL (≈ 0.438 to 0.875 µM)	16 to 32 µg/mL (≈ 28 to 56 µM)	< 30 µM	
